Literature values in US20220354770A1, “METHOD FOR DYEING KERATINOUS MATERIAL BY MEANS OF A PREMIX OF AMINOSILICONE AND A CHROMOPHORIC COMPOUND” (Henkel AG & Co. KGaA, priority 2019, published 2022).

Conditions: 25° C.

Row | Compound | solubility in water
1 | Nc1cc(S(=O)(=O)[O-])cc2cc(S(=O)(=O)[O-])c(N=Nc3ccccc3)c(O)c12.[Na+].[Na+] [Acid Red 33, diantrium salt of 5-amino-4-hydroxy-3-(phenylazo)-naphthalene-2,7-disulphonate] | 2500 µg/mL
2 | O=C([O-])C1=NN(c2ccc(S(=O)(=O)[O-])cc2)C(=O)C1N=Nc1ccc(S(=O)(=O)[O-])cc1.[Na+].[Na+].[Na+] (stereo not shown) [Acid Yellow 23, trisodium salt of 4,5-dihydro-5-oxo-1-(4-sulfophenyl)-4-((4-sulfophenyl)azo)-1H-pyrazole-3-carboxylic acid] | highly soluble
3 | O=C([O-])c1c(Cl)c(Cl)c(Cl)c(Cl)c1-c1c2c(Br)cc(=O)c(Br)c-2oc2c(Br)c(O)cc(Br)c12.O=C([O-])c1c(Cl)c(Cl)c(Cl)c(Cl)c1-c1c2c(Br)cc(=O)c(Br)c-2oc2c(Br)c(O)cc(Br)c12.[Na+].[Na+] [Acid Red 92, disodium salt of 3,4,5,6-tetrachloro-2-(1,4,5,8-tetrabromo-6-hydroxy-3-oxoxanthen-9-yl)benzoic acid] | greater than 10 g/L
4 | O=S(=O)([O-])c1ccc(N=Nc2c(O)ccc3ccccc23)cc1.[Na+] [Acid Orange 7, sodium salt of 4-[(2-hydroxy-1-naphthyl)azo]benzene sulphonate] | more than 7 g/L
